The source of these data is patent US7432283B2, “Heterocyclic GABAA subtype selective receptor modulators” (Roche Palo Alto LLC, priority 2004, dated 2008).

What is called melting point is the temperature, or range, at which the solid turns liquid. Consider `C=Cc1c2c(nn1C)N(c1c(C)cc(C)cc1C)CCC2` [Compound 3-8, 2-methyl-7-(2,4,6-trimethyl-phenyl)-3-vinyl-4,5,6,7-tetrahydro-2H-pyrazolo[3,4-b]pyridine], for which the melting point lay within 64.4 to 67.6 °C. As for `CCCC(CCC)c1c2c(nn1C)N(c1c(C)cc(C)cc1C)CCC2` [Compound 4-2, 2-Methyl-3-(1-propylbutyl)-7-(2,4,6-trimethylphenyl)-4,5,6,7-tetrahydro-2H-pyrazolo[3,4-b]pyridine], the figure is 91.5 to 92 °C. Next, `CCCC(c1cccs1)c1c2c(nn1C)N(c1c(C)cc(C)cc1C)CCC2` (stereo not drawn) [Compound 4-3, 2-Methyl-3-(1-thiophen-2-ylbutyl)-7-(2,4,6-trimethylphenyl)-4,5,6,7-tetrahydro-2H-pyrazolo[3,4-b]pyridine]: 87.6 to 90.3 °C; `CCCC(CCC)c1c2c(nn1C)N(c1c(C)cc(C)cc1C)CCCC2` [Compound 4-4, 2-Methyl-3-(1-propylbutyl)-8-(2,4,6-trimethylphenyl)-2,4,5,6,7,8-hexahydro-1,2,8-triazaazulene]: 96 to 98.1 °C. Next, `CCc1c2c(nn1C)N(c1c(C)cc(C)cc1C)CCC2` [Compound 4-5, 3-Ethyl-2-methyl-7-(2,4,6-trimethyl-phenyl)-4,5,6,7-tetrahydro-2H-pyrazolo[3,4-b]pyridine]: 79.7 to 81.4 °C. As for `Cc1cc(C)c(N2CCCc3c2nn(C)c3C(C)C)c(C)c1` [Compound 4-7, 3-Isopropyl-2-methyl-7-(2,4,6-trimethyl-phenyl)-4,5,6,7-tetrahydro-2H-pyrazolo[3,4-b]pyridine], the melting point fell in the range of 105.9 to 108.9 °C. As for `Cc1cc(C)c(N2CCCc3c2nn(C)c3C(=O)O)c(Cl)c1` [Compound 5-1, 7-(2-Chloro-4,6-dimethylphenyl)-2-methyl-4,5,6,7-tetrahydro-2H-pyrazolo[3,4-b]pyridine-3-carboxylic acid], the figure is 247.8 to 248.3 °C; as for `Cc1cc(C)c(N2CCCc3c2nn(C)c3C(=O)O)c(C)c1` [Compound 5-2, 7-(2,4,6-Trimethylphenyl)-2-methyl-4,5,6,7-tetrahydro-2H-pyrazolo[3,4-b]pyridine-3-carboxylic acid], 228.6 to 233.9 °C. Take `Cc1cc(C)c(N2CCCc3c2nn(C)c3NC(=O)OC(C)(C)C)c(Cl)c1` [Compound 5-3, [7-(2-Chloro-4,6-dimethylphenyl)-2-methyl-4,5,6,7-tetrahydro-2H-pyrazolo[3,4-b]pyridin-3-yl]carbamic acid tert-butyl ester]: the melting point lay in the range of 171.4 to 175.7 °C. As for `CCOC(=O)Nc1c2c(nn1C)N(c1c(C)cc(C)cc1Cl)CCC2` [Compound 5-4, [7-(2-Chloro-4,6-dimethylphenyl)-2-methyl-4,5,6,7-tetrahydro-2H-pyrazolo[3,4-b]pyridin-3-yl]carbamic acid ethyl ester], the figure is 204 to 207.8 °C; as for `CCCN(CCC)c1c2c(nn1C)N(c1c(C)cc(C)cc1Cl)CCC2` [Compound 5-5, [7-(2-Chloro-4,6-dimethylphenyl)-2-methyl-4,5,6,7-tetrahydro-2H-pyrazolo[3,4-b]pyridin-3-yl]dipropylamine], 90 to 91 °C. Next, `CCCN(CCC)c1c2c(nn1C)N(c1c(C)cc(C)cc1C)CCC2` [Compound 5-35, [2-Methyl-7-(2,4,6-trimethylphenyl)-4,5,6,7-tetrahydro-2H-pyrazolo[3,4-b]pyridin-3-yl]-dipropylamine]: 88.9 to 91.5 °C; `CCC(CC)Nc1c2c(nn1C)N(c1c(C)cc(C)cc1C)CCC2` [Compound 5-36, (1-Ethylpropyl)-[2-methyl-7-(2,4,6-trimethyl-phenyl)-4,5,6,7-tetrahydro-2H-pyrazolo[3,4-b]pyridin-3-yl]-amine]: 99.3 to 104.9 °C; `CCC(COC)Nc1c2c(nn1C)N(c1c(C)cc(C)cc1C)CCC2` (stereo not drawn) [Compound 5-40, (1-Methoxymethylpropyl)-[2-methyl-7-(2,4,6-trimethylphenyl)-4,5,6,7-tetrahydro-2H-pyrazolo[3,4-b]pyridin-3-yl]-amine]: 96.5 to 102.5 °C. In turn, `CCCC(COC)Nc1c2c(nn1C)N(c1c(C)cc(C)cc1C)CCC2` (stereo not drawn) [Compound 5-41, (1-Methoxymethylbutyl)-[2-methyl-7-(2,4,6-trimethylphenyl)-4,5,6,7-tetrahydro-2H-pyrazolo[3,4-b]pyridin-3-yl]-amine] returned a melting point of 100.1 to 104.4 °C. As for `Cn1nc2c(c1N)CCCN2c1ccc(Cl)cc1Cl` [Compound 5-43, 7-(2,4-Dichloro-phenyl)-2-methyl-4,5,6,7-tetrahydro-2H-pyrazolo[3,4-b]pyridin-3-ylamine], the figure is 176.9 to 178.9 °C. Turning to `Cc1cc(C)c(N2CCCc3c2nn(C)c3N)c(Cl)c1` [Compound 5-45, 7-(2-Chloro-4,6-dimethyl-phenyl)-2-methyl-4,5,6,7-tetrahydro-2H-pyrazolo[3,4-b]pyridin-3-ylamine], the melting point was 234 to 236 °C. In turn, `CCCN(CCCC#N)c1c2c(nn1C)N(c1c(C)cc(C)cc1C)CCC2` [Compound 5-48, 4-{[2-Methyl-7-(2,4,6-trimethyl-phenyl)-4,5,6,7-tetrahydro-2H-pyrazolo [3,4-b]pyridin-3-yl]-propyl-amino}-butyronitrile] yielded a melting point of 108.3 to 111 °C. In turn, `CNc1c2c(nn1C)N(c1c(C)cc(C)cc1C)CCC2` [Compound 5-49, Methyl-[2-methyl-7-(2,4,6-trimethyl-phenyl)-4,5,6,7-tetrahydro-2H-pyrazolo[3,4-b]pyridin-3-yl]-amine] showed a melting point of 143.3 to 144.9 °C. Next, `Cc1cc(C)c(N2CCCc3c2nn(C)c3N)c(C)c1` [Compound 5-52, 2-methyl-7-(2,4,6-trimethyl-phenyl)-4,5,6,7-tetrahydro-2H-pyrazolo[3,4-b]pyridin-3-ylamine]: 208.8 to 210.9 °C; `Cn1nc2c(c1C(=O)c1ccccn1)CCCN2c1ccc(Cl)cc1Cl` [Compound 6-1, [7-(2,4-Dichloro-phenyl)-2-methyl-4,5,6,7-tetrahydro-2H-pyrazolo[3,4-b]pyridin-2-yl]-methanone]: 142.1 to 149.2 °C; `CO/N=C(\C)c1c2c(nn1C)N(c1c(C)cc(C)cc1C)CCC2` [Compound 6-4, 1-[2-Methyl-7-(2,4,6-trimethyl-phenyl)-4,5,6,7-tetrahydro-2H-pyrazolo[3,4-b]pyridin-3-yl]-ethanone O-methyl-oxime]: 104.2 to 106.4 °C.

For the compound `CO/N=C/c1c2c(nn1C)N(c1c(C)cc(C)cc1C)CCC2` [Compound 6-5, 2-Methyl-7-(2,4,6-trimethyl-phenyl)-4,5,6,7-tetrahydro-2H-pyrazolo[3,4-b] pyridine-3-carbaldehyde O-methyl-oxime], the melting point lay within 89 to 90.1 °C. Take `CCCN(CC1CC1)C(=O)c1c2c(nn1C)N(c1c(C)cc(C)cc1Cl)CCC2` [Compound 7-1, 7-(2-Chloro-4,6-dimethylphenyl)-2-methyl-4,5,6,7-tetrahydro-2H-pyrazolo[3,4-b]pyridine-3-carboxylic acidcyclopropylmethylpropyl amide]: the melting point lay within 120.6 to 122 °C. As for `Cc1cc(C)c(N2CCCc3c2nn(C)c3C(=O)N2CCc3ccccc3C2)c(C)c1` [Compound 7-2, (3,4-Dihydro-1H-isoquinolin-2-yl)-[2-methyl-7-(2,4,6-trimethyl-phenyl)-4,5,6,7-tetrahydro-2H-pyrazolo[3,4-b]pyridin-3-yl]-methanone], the figure is 80.3 to 87.7 °C; as for `CCC(=O)Nc1c2c(nn1C)N(c1c(C)cc(C)cc1C)CCC2` [Compound 7-3, N-[2-Methyl-7-(2,4,6-trimethylphenyl)-4,5,6,7-tetrahydro-2H-pyrazolo[3,4-b]pyridin-3-yl]propionamide], 226 to 228 °C; as for `COCC(=O)Nc1c2c(nn1C)N(c1c(C)cc(C)cc1C)CCC2` [Compound 7-4, 2-Methoxy-N-[2-methyl-7-(2,4,6-trimethyl-phenyl)-4,5,6,7-tetrahydro-2H-pyrazolo[3,4-b]pyridin-3-yl]acetamide], 133.8 to 135 °C. `Cc1cc(C)c(N2CCCc3c2nn(C)c3-c2ccccc2C(F)(F)F)c(C)c1` [Compound 9-1, 2-Methyl-3-(2-trifluoromethyl-phenyl)-7-(2,4,6-trimethyl-phenyl)-4,5,6,7-tetrahydro-2H-pyrazolo[3,4-b]pyridine]: the melting point is 59 to 63 °C. In turn, `Cn1nc2c(c1-c1cncnc1)CCCN2c1ccc(Cl)cc1Cl` [Compound 9-2, 7-(2,4-Dichloro-phenyl)-2-methyl-3-pyrimidin-5-yl-4,5,6,7-tetrahydro-2H-pyrazolo[3,4-b]pyridine] gave a melting point of 164.2 to 166.8 °C. As for `Cn1nc2c(c1-c1ccncc1)CCCN2c1ccc(Cl)cc1Cl` [Compound 9-3, 7-(2,4-Dichloro-phenyl)-2-methyl-3-pyridin-4-yl-4,5,6,7-tetrahydro-2H-pyrazolo[3,4-b]pyridine], the figure is 123.5 to 125.5 °C; as for `Cc1cc(C)c(N2C(=O)CCc3c2nn(C)c3Br)c(C)c1` [Compound 9-4, 3-Bromo-2-methyl-7-(2,4,6-trimethyl-phenyl)-2,4,5,7-tetrahydro-pyrazolo[3,4-b]pyridin-6-one], 256.8 to 258 °C.

`Cc1cc(C)c(N2CCOc3cn(C)nc32)c(C)c1` [Compound 9-5, 2-Methyl-7-(2,4,6-trimethyl-phenyl)-2,5,6,7-tetrahydro-pyrazolo[4,3-b][1,4]oxazine] had a melting point of 103.6 to 104.8 °C. Next, `COc1cccc(OC)c1-c1c2c(nn1C)N(c1c(C)cc(C)cc1C)CCC2` [Compound 9-6, 3-(2,6-Dimethoxy-phenyl)-2-methyl-7-(2,4,6-trimethyl-phenyl)-4,5,6,7-tetrahydro-2H-pyrazolo[3,5-b]pyridine]: 169.9 to 172.8 °C.
